{"source": "patent US20230053540A1", "about": "“TREATMENT OF LIVER INJURY” (Massachusetts Institute of Technology, priority 2019, published 2023)", "system": "hepatocytes", "test": "Seq-Well scRNA-Seq of hepatocytes after APAP overdose (signature scores, DEG vs untreated)", "assay_type": "in vivo, mouse", "details": "A6", "data": [{"smiles": "CC(=O)Nc1ccc(O)cc1", "note": "[APAP, acetaminophen]", "values": [{"measurement": "2-Mar pct.1", "result": 0.611}, {"measurement": "2010003K11Rik pct.1", "result": 0.396}, {"measurement": "2810007J24Rik pct.1", "result": 0.675}, {"measurement": "8430408G22Rik pct.1", "result": 0.041}, {"measurement": "Aadac pct.1", "result": 0.673}, {"measurement": "Aass pct.1", "result": 0.747}, {"measurement": "Abca1 pct.1", "result": 0.604}, {"measurement": "Abhd2 pct.1", "result": 0.37}, {"measurement": "Acaa1b pct.1", "result": 0.752}, {"measurement": "Adck3 pct.1", "result": 0.363}, {"measurement": "Adh1 pct.1", "result": 0.74}, {"measurement": "Adh4 pct.1", "result": 0.165}, {"measurement": "Agpat9 pct.1", "result": 0.277}, {"measurement": "Akr1c6 pct.1", "result": 0.675}, {"measurement": "Akr1c20 pct.1", "result": 0.248}, {"measurement": "Alb pct.1", "result": 1}, {"measurement": "Aldh1a1 pct.1", "result": 0.862}, {"measurement": "Aldh3a2 pct.1", "result": 0.064}, {"measurement": "Aldh8a1 pct.1", "result": 0.418}, {"measurement": "Ang pct.1", "result": 0.315}, {"measurement": "Apoa2 pct.1", "result": 0.993}, {"measurement": "Apoa4 pct.1", "result": 0.721}, {"measurement": "Apob pct.1", "result": 0.99}, {"measurement": "Apoc1 pct.1", "result": 0.962}, {"measurement": "Apoc3 pct.1", "result": 0.869}, {"measurement": "Apoe pct.1", "result": 1}, {"measurement": "Apol7a pct.1", "result": 0.072}, {"measurement": "Arhgef12 pct.1", "result": 0.578}, {"measurement": "Arl4d pct.1", "result": 0.112}, {"measurement": "Asl pct.1", "result": 0.826}, {"measurement": "Atp2a2 pct.1", "result": 0.616}, {"measurement": "Atp5e pct.1", "result": 0.506}, {"measurement": "Atp5h pct.1", "result": 0.377}, {"measurement": "B4galt5 pct.1", "result": 0.332}, {"measurement": "Bach1 pct.1", "result": 0.461}, {"measurement": "Bcl2l1 pct.1", "result": 0.501}, {"measurement": "Btg2 pct.1", "result": 0.549}, {"measurement": "C8g pct.1", "result": 0.673}, {"measurement": "C230081A13Rik pct.1", "result": 0.279}, {"measurement": "Car3 pct.1", "result": 0.854}, {"measurement": "Ccl6 pct.1", "result": 0.274}, {"measurement": "Cd5l pct.1", "result": 0.21}, {"measurement": "Cd14 pct.1", "result": 0.153}, {"measurement": "Cd302 pct.1", "result": 0.649}, {"measurement": "Cdkn1a pct.1", "result": 0.702}, {"measurement": "Cers6 pct.1", "result": 0.332}, {"measurement": "Ces3a pct.1", "result": 0.831}, {"measurement": "Chchd2 pct.1", "result": 0.718}, {"measurement": "Chka pct.1", "result": 0.716}, {"measurement": "Cidec pct.1", "result": 0.253}, {"measurement": "Clec4f pct.1", "result": 0.339}, {"measurement": "Clqb pct.1", "result": 0.234}, {"measurement": "Cltc pct.1", "result": 0.661}, {"measurement": "Cml1 pct.1", "result": 0.475}, {"measurement": "Cox4i1 pct.1", "result": 0.869}, {"measurement": "Cox6c pct.1", "result": 0.558}, {"measurement": "Cox7a2 pct.1", "result": 0.456}, {"measurement": "Cox7b pct.1", "result": 0.632}, {"measurement": "Creb3l2 pct.1", "result": 0.329}, {"measurement": "Ctsl pct.1", "result": 0.878}, {"measurement": "Ctss pct.1", "result": 0.212}, {"measurement": "Cxadr pct.1", "result": 0.606}, {"measurement": "Cyb5 pct.1", "result": 0.916}, {"measurement": "Cyp4a14 pct.1", "result": 0.776}, {"measurement": "D10Wsu102e pct.1", "result": 0.37}, {"measurement": "Dbi pct.1", "result": 0.819}, {"measurement": "Ddt pct.1", "result": 0.539}, {"measurement": "Ddx3x pct.1", "result": 0.692}, {"measurement": "Ddx5 pct.1", "result": 0.685}, {"measurement": "Dusp5 pct.1", "result": 0.196}, {"measurement": "Dusp6 pct.1", "result": 0.482}, {"measurement": "Efhd2 pct.1", "result": 0.468}, {"measurement": "Eif1a pct.1", "result": 0.599}, {"measurement": "Eif4g2 pct.1", "result": 0.757}, {"measurement": "Epas1 pct.1", "result": 0.604}, {"measurement": "Etf1 pct.1", "result": 0.606}, {"measurement": "Ets2 pct.1", "result": 0.415}, {"measurement": "Fabp1 pct.1", "result": 0.971}, {"measurement": "Fabp2 pct.1", "result": 0.315}, {"measurement": "Fam134b pct.1", "result": 0.678}, {"measurement": "Fdx1 pct.1", "result": 0.305}, {"measurement": "Fga pct.1", "result": 0.986}, {"measurement": "Fgb pct.1", "result": 0.995}, {"measurement": "Fgg pct.1", "result": 0.986}, {"measurement": "Fkbp5 pct.1", "result": 0.415}, {"measurement": "Fxyd5 pct.1", "result": 0.138}, {"measurement": "G6pc pct.1", "result": 0.313}, {"measurement": "Gamt pct.1", "result": 0.277}, {"measurement": "Gclc pct.1", "result": 0.962}, {"measurement": "Gcnt2 pct.1", "result": 0.372}, {"measurement": "Gjb2 pct.1", "result": 0.678}, {"measurement": "Glyat pct.1", "result": 0.468}, {"measurement": "Gm13775 pct.1", "result": 0.284}, {"measurement": "Gm15564 pct.1", "result": 0.983}, {"measurement": "Gm24601 pct.1", "result": 0.241}, {"measurement": "Gm26924 pct.1", "result": 1}, {"measurement": "Gn13 pct.1", "result": 0.501}, {"measurement": "Gpt2 pct.1", "result": 0.764}, {"measurement": "Gpx1 pct.1", "result": 0.969}, {"measurement": "Grn pct.1", "result": 0.582}, {"measurement": "Gsta1 pct.1", "result": 0.32}, {"measurement": "Gulo pct.1", "result": 0.076}, {"measurement": "H3f3b pct.1", "result": 0.613}, {"measurement": "Haao pct.1", "result": 0.621}, {"measurement": "Hacl1 pct.1", "result": 0.489}, {"measurement": "Hagh pct.1", "result": 0.573}, {"measurement": "Hba-a1 pct.1", "result": 0.165}, {"measurement": "Hba-a2 pct.1", "result": 0.131}, {"measurement": "Hbb-bs pct.1", "result": 0.537}, {"measurement": "Hbb-bt pct.1", "result": 0.246}, {"measurement": "Hebp1 pct.1", "result": 0.43}, {"measurement": "Hes6 pct.1", "result": 0.076}, {"measurement": "Hgd pct.1", "result": 0.511}, {"measurement": "Hif1a pct.1", "result": 0.427}, {"measurement": "Hilpda pct.1", "result": 0.403}, {"measurement": "Hint1 pct.1", "result": 0.57}, {"measurement": "Hmox1 pct.1", "result": 0.558}, {"measurement": "Hnf4a pct.1", "result": 0.835}, {"measurement": "Hpd pct.1", "result": 0.883}, {"measurement": "Hsd3b5 pct.1", "result": 0.062}, {"measurement": "Hsd17b13 pct.1", "result": 0.864}, {"measurement": "Hspb8 pct.1", "result": 0.709}, {"measurement": "Iigp1 pct.1", "result": 0.78}, {"measurement": "Il1b pct.1", "result": 0.236}, {"measurement": "Il1r1 pct.1", "result": 0.683}, {"measurement": "Insig2 pct.1", "result": 0.854}, {"measurement": "Itih2 pct.1", "result": 0.893}, {"measurement": "Jak1 pct.1", "result": 0.554}, {"measurement": "Jmjd1c pct.1", "result": 0.47}, {"measurement": "Klf6 pct.1", "result": 0.382}, {"measurement": "Krt8 pct.1", "result": 0.826}, {"measurement": "Krt18 pct.1", "result": 0.864}, {"measurement": "Lactb2 pct.1", "result": 0.47}, {"measurement": "Lars2 pct.1", "result": 1}, {"measurement": "Lifr pct.1", "result": 0.389}, {"measurement": "Lpgat1 pct.1", "result": 0.618}, {"measurement": "Lpin2 pct.1", "result": 0.745}, {"measurement": "Lrg1 pct.1", "result": 0.783}, {"measurement": "Lrrc58 pct.1", "result": 0.711}, {"measurement": "Lyz2 pct.1", "result": 0.234}, {"measurement": "Man2a1 pct.1", "result": 0.671}, {"measurement": "Mat1a pct.1", "result": 0.986}, {"measurement": "Mbl1 pct.1", "result": 0.382}, {"measurement": "Mcm10 pct.1", "result": 0.079}, {"measurement": "Mfsd2a pct.1", "result": 0.465}, {"measurement": "Mgst1 pct.1", "result": 0.938}, {"measurement": "Mmp8 pct.1", "result": 0.136}, {"measurement": "Mrap pct.1", "result": 0.606}, {"measurement": "Msrb1 pct.1", "result": 0.558}, {"measurement": "Mt1 pct.1", "result": 0.981}, {"measurement": "Mt2 pct.1", "result": 0.938}, {"measurement": "Mthfd2 pct.1", "result": 0.205}, {"measurement": "Mup3 pct.1", "result": 1}, {"measurement": "Mup4 pct.1", "result": 0.621}, {"measurement": "Mup5 pct.1", "result": 0.475}, {"measurement": "Mup6 pct.1", "result": 0.706}, {"measurement": "Mup7 pct.1", "result": 0.831}, {"measurement": "Mup9 pct.1", "result": 0.489}, {"measurement": "Mup11 pct.1", "result": 0.511}, {"measurement": "Mup12 pct.1", "result": 0.32}, {"measurement": "Mup15 pct.1", "result": 0.076}, {"measurement": "Mup16 pct.1", "result": 0.334}, {"measurement": "Mup17 pct.1", "result": 0.871}, {"measurement": "Mup18 pct.1", "result": 0.728}, {"measurement": "Mup19 pct.1", "result": 0.759}, {"measurement": "Mup21 pct.1", "result": 0.58}, {"measurement": "Myh9 pct.1", "result": 0.718}, {"measurement": "Myo1e pct.1", "result": 0.475}, {"measurement": "Ndufa4 pct.1", "result": 0.656}, {"measurement": "Ndufa6 pct.1", "result": 0.506}, {"measurement": "Nid1 pct.1", "result": 0.229}, {"measurement": "Nop58 pct.1", "result": 0.492}, {"measurement": "Nudt7 pct.1", "result": 0.279}, {"measurement": "Oaf pct.1", "result": 0.437}, {"measurement": "Oat pct.1", "result": 0.05}, {"measurement": "Pah pct.1", "result": 0.687}, {"measurement": "Pcbd1 pct.1", "result": 0.535}, {"measurement": "Pck1 pct.1", "result": 0.814}, {"measurement": "Phlda1 pct.1", "result": 0.494}, {"measurement": "Picalm pct.1", "result": 0.647}, {"measurement": "Plin2 pct.1", "result": 0.943}, {"measurement": "Plscr1 pct.1", "result": 0.329}, {"measurement": "Pon1 pct.1", "result": 0.685}, {"measurement": "Ppib pct.1", "result": 0.463}, {"measurement": "Ppl pct.1", "result": 0.47}, {"measurement": "Ppm1k pct.1", "result": 0.15}, {"measurement": "Prdx1 pct.1", "result": 0.742}, {"measurement": "Psat1 pct.1", "result": 0.229}, {"measurement": "Psen2 pct.1", "result": 0.384}, {"measurement": "Ptprc pct.1", "result": 0.153}, {"measurement": "Ranbp2 pct.1", "result": 0.566}, {"measurement": "Rarres2 pct.1", "result": 0.678}, {"measurement": "Rcan1 pct.1", "result": 0.425}, {"measurement": "Rdh7 pct.1", "result": 0.862}, {"measurement": "Rell1 pct.1", "result": 0.375}, {"measurement": "Retnlg pct.1", "result": 0.129}, {"measurement": "Retsat pct.1", "result": 0.845}, {"measurement": "Rnase4 pct.1", "result": 0.563}, {"measurement": "Rock2 pct.1", "result": 0.425}, {"measurement": "Rora pct.1", "result": 0.549}, {"measurement": "Rps27l pct.1", "result": 0.484}, {"measurement": "S100a8 pct.1", "result": 0.353}]}]}
